pIC50: −log10 of the molar value. Read-outs that look alike come from different tables or passages of the source.
Tests used:
cholesterol in serum = assay: Hypocholesterolemic effect in cholesterol-fed mice; format: in vivo, Male ICR mice; conditions: Mus musculus, po, 168 h, diet 1% cholesterol and 0.5% sodium cholate with 0.12% test compound, 7 days
Description: Hypocholesterolemic effect
Male ICR mice weighing 30 to 40 g were allowed to access to a diet containing 1% cholesterol and 0.5% sodium cholate supplemented with 0.12% of a test compound (no test compound in control group) ad libitum for 7 days. Then, the blood was taken and total cholesterol in serum was determined by the method of Allain (Clin. Chem., Vol. 20, 470 (1974)).
Total amount of VLDL cholesterol and LDL cholesterol was obtained by subtracting HLD cholesterol from total cholesterol. HLD cholesterol was quantified by the method of Ash and Hentschel et al. (Clin. Chem., Vol. 24, 2180 (1978)).
Hypocholesterolemic effect of a test compound was evaluated based on % reduction in cholesterol calculated using the equation shown below.

LDL = assay: Inhibitory effect on oxidative modification of LDL (copper-induced, TBA reactive substances); format: biochemical, New Zealand albino rabbits; conditions: rabbit LDL 0.2 mg protein/ml, 0.5 μM Cu^2+, 37° C., 24 hours; read-out: Inhibition of LDL oxidation IC50
Description: Inhibitory effect on oxidative modification of LDL
According to the method by Kita et al. (Proc. Natl. Acad. Sci., U.S.A, Vol. 84, 5928 (1987)), the experiment was proceeded as follows.
LDL was isolated from the blood of New Zealand albino rabbits fed with a diet containing 0.5% cholesterol for 3 weeks, and dissolved in phosphate-buffered physiological saline (final LDL concentration: 0.2 mg protein/ml). To this solution, each test compound in ethanol was added and then copper sulfate (final Cu^2+ concentration: 0.5 μM) was added thereto. The mixture was incubated at 37° C. for 24 hours.
After incubation, the content of lipid peroxides in each solution was determined as thiobarbituric acid reactive substances (TBA reactive substances). Concentration for 50% inhibition (IC50) was obtained from a linear regression curve of concentration of a compound versus % inhibition of oxidative modification of LDL. To quantify TBA reactive substances, proteins were removed from the solution after incubation, and the supernatant was examined for the content of TBA reactive substances by TBA method.

[1] = serum, read-out: Total Chol. reduction (%)
[2] = total minus HDL cholesterol, read-out: (VLDL + LDL) Chol. reduction (%)

Compound	inhibition in vivo at 0.12 % in diet (cholesterol in serum; [1]) [%]	inhibition in vivo at 0.12 % in diet (cholesterol in serum; [2]) [%]	pIC50 (LDL)
COC(=O)c1c(C(=O)CC2CCCCC2)c(O)c2cc(OC)c(OC)c(OC)c2c1-c1ccc(OC)c(OC)c1 [Example 7, 3-(2-Cyclohexyl-1-oxoethyl)-1-(3,4-dimethoxyphenyl)-4-hydroxy-2-methoxycarbonyl-6,7,8-trimethoxynaphthalene]	23	59	5.59
CCC(CC)C(=O)c1c(C)c(-c2ccc(OC)c(OC)c2)c2c(OC)c(OC)c(OC)cc2c1O [Example 64, 1-(3,4-dimethoxyphenyl)-3-(2-ethyl-1-oxobutyl)-4-hydroxy-2-methyl-6,7,8-trimethoxynaphthalene]	2	39	5.15
CCC(CC)CC(=O)c1c(C(=O)OC)c(-c2ccc(OC)c(OC)c2)c2c(OC)c(OC)c(OC)c(OC)c2c1O [Example 69, 1-(3,4-dimethoxyphenyl)-3-(3-ethyl-1-oxopentyl)-4-hydroxy-2-methoxycarbonyl-5,6,7,8-tetramethoxynaphthalene]	10	16	5.55
CCC(CC)C(=O)c1c(C(F)(F)F)c(-c2ccc(OC)c(OC)c2)c2c(OC)c(OC)c(OC)cc2c1O [Example 66, 1-(3,4-Dimethoxyphenyl)-3-(2-ethyl-1-oxobutyl)-4-hydroxy-2-(trifluoromethyl)-6,7,8-trimethoxynaphthalene]	9	36	5.83
COC(=O)c1c(C(=O)c2ccc(Cl)cc2)c(O)c2cc3c(cc2c1-c1ccc(OC)c(OC)c1)OCO3 [Example 34, 3-(4-Chlorobenzoyl)-1-(3,4-dimethoxyphenyl)-4-hydroxy-2-methoxycarbonyl-6,7-(methylenedioxy)naphthalene]	23	53	–
CCC(=O)c1c(C(=O)OC)c(-c2ccc(OC)c(OC)c2)c2c(OC)c(OC)c(OC)c(OC)c2c1O [Example 73, 1-(3,4-dimethoxyphenyl)-3-(1-oxopropyl)-4-hydroxy-2-methoxycarbonyl-5,6,7,8-tetramethoxynaphthalene]	13	60	5.53
CCC(CC)CC(=O)c1c(C(=O)OC)c(-c2ccc(OC)cc2OC)c2c(OC)c(OC)c(OC)cc2c1O [Example 42, 1-(2,4-Dimethoxyphenyl)-3-(3-ethyl-1-oxopentyl)-4-hydroxy-2-methoxycarbonyl-6,7,8-trimethoxynaphthalene]	5	26	5.77
COC(=O)c1c(C(=O)C2CCCCC2)c(O)c2cc(OC)c(OC)c(OC)c2c1-c1ccc(OC)c(OC)c1 [Example 5, 3-Cyclohexanoyl-1-(3,4-dimethoxyphenyl)-4-hydroxy-2-methoxycarbonyl-6,7,8-trimethoxynaphthalene]	22	61	6.34
CCC(CC)CC(=O)c1c(C(=O)OC)c(-c2ccc(OC)c(F)c2)c2c(OC)c(OC)c(OC)cc2c1O [Example 61, 3-(3-Ethyl-1-oxopentyl)-1-(3-fluoro-4-methoxyphenyl)-4-hydroxy-2-methoxycarbonyl-6,7,8-trimethoxynaphthalene]	11	43	5.31
CCC(=O)c1c(C(=O)OC)c(-c2ccc(OC)c(OC)c2)c2c(OC)c(OC)c(OC)c(C)c2c1O [Example 72, 1-(3,4-dimethoxyphenyl)-3-(1-oxopropyl)-4-hydroxy-2-methoxycarbonyl-5-methyl-6,7,8-trimethoxynaphthalene]	20	64	6.23
COC(=O)c1c(C(=O)c2ccc(C(F)(F)F)cc2)c(O)c2cc(OC)c(OC)c(OC)c2c1-c1ccc(OC)cc1OC [Example 43, 1-(2,4-Dimethoxyphenyl)-4-hydroxy-2-methoxycarbonyl-3-[4-(trifluoromethyl)benzoyl]-6,7,8-trimethoxynaphthalene]	15	59	5.67
COC(=O)c1c(C(=O)c2ccc(OC)cc2)c(O)c2cc(OC)c(OC)c(OC)c2c1-c1ccc(OC)c(OC)c1 [Example 22, 1-(3,4-Dimethoxyphenyl)-4-hydroxy-3-(4-methoxybenzoyl)-2-methoxycarbonyl-6,7,8-trimethoxynaphthalene]	12	60	6.09
COc1ccc(-c2c(C(F)(F)F)c(C(=O)c3ccc(C(F)(F)F)cc3)c(O)c3cc(OC)c(OC)c(OC)c23)cc1OC [Example 63, 1-(3,4-dimethoxyphenyl)-4-hydroxy-2-(trifluoromethyl)-3-[4-(trifluoromethyl)benzoyl]-6,7,8-trimethoxynaphthalene]	20	53	5.63
COC(=O)c1c(C(=O)c2ccc3ccccc3c2)c(O)c2cc(OC)c(OC)c(OC)c2c1-c1ccc(OC)c(OC)c1 [Example 25, 1-(3,4-Dimethoxyphenyl)-4-hydroxy-2-methoxycarbonyl-3-(2-naphthoyl)-6,7,8-trimethoxynaphthalene]	16	59	5.68
CCC(CC)CC(=O)c1c(C(=O)OC)c(-c2ccc(OC)c(OC)c2)c2sccc2c1O [Example 15, 7-(3,4-Dimethoxyphenyl)-5-(3-ethyl-1-oxopentyl)-4-hydroxy-6-(methoxycarbonyl)benzo[b]thiophene]	23	43	5.10
CCC(=O)c1c(C(=O)OC)c(-c2ccc(OC)cc2OC)c2c(OC)c(OC)c(OC)cc2c1O [Example 41, 1-(2,4-Dimethoxyphenyl)-4-hydroxy-2-methoxycarbonyl-3-(1-oxopropyl)-6,7,8-trimethoxynaphthalene]	11	41	4.77
CCCc1ccc(C(=O)c2c(C(=O)OC)c(-c3ccc(OC)c(OC)c3)c3c(OC)c(OC)c(OC)cc3c2O)cc1 [Example 29, 1-(3,4-Dimethoxyphenyl)-4-hydroxy-2-methoxycarbonyl-3-[4-(1-propyl)benzoyl]-6,7,8-trimethoxynaphthalene]	20	42	5.86
COC(=O)c1c(C(=O)c2ccccc2)c(O)c2c(C)c(OC)c(OC)c(OC)c2c1-c1ccc(OC)c(OC)c1 [Example 78, 3-benzoyl-1-(3,4-dimethoxyphenyl)-4-hydroxy-2-methoxycarbonyl-5-methyl-6,7,8-trimethoxynaphthalene]	14	42	6.21
COC(=O)c1c(C(C)=O)c(O)c2cc(OC)c(OC)c(OC)c2c1-c1ccc(OC)c(OC)c1 [Example 2, 3-Acetyl-1-(3,4-dimethoxyphenyl)-4-hydroxy-2-methoxycarbonyl-6,7,8-trimethoxynaphthalene]	22	59	5.91
COC(=O)c1c(C(=O)Cc2ccccc2)c(O)c2cc(OC)c(OC)c(OC)c2c1-c1ccc(OC)c(OC)c1 [Example 8, 1-(3,4-Dimethoxyphenyl)-4-hydroxy-2-methoxycarbonyl-3-(2-phenyl-1-oxoethyl)-6,7,8-trimethoxynaphthalene]	17	50	5.33
COC(=O)c1c(C(=O)C(C)C)c(O)c2c(OC)c(OC)c(OC)c(OC)c2c1-c1ccc(OC)c(OC)c1 [Example 77, 1-(3,4-dimethoxyphenyl)-3-(2-methyl-1-oxopropyl)-4-hydroxy-2-methoxycarbonyl-5,6,7,8-tetramethoxynaphthalene]	18	53	5.59
CCC(CC)C(=O)c1c(C(=O)OC)c(-c2ccc(OC)c(OC)c2)c2cc3c(cc2c1O)OCO3 [Example 33, 1-(3,4-Dimethoxyphenyl)-3-(2-ethyl-1-oxobutyl)-4-hydroxy-2-methoxycarbonyl-6,7-(methylenedioxy)naphthalene]	19	50	–
CCC(CC)CC(=O)c1c(C(=O)OC)c(-c2ccc3c(c2)OCCO3)c2c(OC)c(OC)c(OC)cc2c1O [Example 60, 1-[3,4-(Ethylenedioxy)phenyl]-3-(3-ethyl-1-oxopentyl)-4-hydroxy-2-methoxycarbonyl-6,7,8-trimethoxynaphthalene]	6	33	–
